Values joined by “and” are separate entries in the source; they are usually repeats but may differ in a detail not shown here. Equal entries are not always repeated. “Also recorded” adds a separate entry of the source. Where two headings read alike, the source gives them in different places.
How the values were obtained:
SERT binding sites [1] = target: T1, SERT binding sites (Rattus norvegicus, UniProt P31652); experiment: In vivo competitive binding / blocking of [^125I]4 regional uptake; settings: rats, drug 2 mg/kg i.v. 5 min prior to tracer, 120 min after [^125I]4
T1 construct: from tissue; host or cells: rat brain in vivo (hypothalamus, cortex, striatum, hippocampus, cerebellum); ex vivo brain sections
T1 sequence (P31652 whole entry): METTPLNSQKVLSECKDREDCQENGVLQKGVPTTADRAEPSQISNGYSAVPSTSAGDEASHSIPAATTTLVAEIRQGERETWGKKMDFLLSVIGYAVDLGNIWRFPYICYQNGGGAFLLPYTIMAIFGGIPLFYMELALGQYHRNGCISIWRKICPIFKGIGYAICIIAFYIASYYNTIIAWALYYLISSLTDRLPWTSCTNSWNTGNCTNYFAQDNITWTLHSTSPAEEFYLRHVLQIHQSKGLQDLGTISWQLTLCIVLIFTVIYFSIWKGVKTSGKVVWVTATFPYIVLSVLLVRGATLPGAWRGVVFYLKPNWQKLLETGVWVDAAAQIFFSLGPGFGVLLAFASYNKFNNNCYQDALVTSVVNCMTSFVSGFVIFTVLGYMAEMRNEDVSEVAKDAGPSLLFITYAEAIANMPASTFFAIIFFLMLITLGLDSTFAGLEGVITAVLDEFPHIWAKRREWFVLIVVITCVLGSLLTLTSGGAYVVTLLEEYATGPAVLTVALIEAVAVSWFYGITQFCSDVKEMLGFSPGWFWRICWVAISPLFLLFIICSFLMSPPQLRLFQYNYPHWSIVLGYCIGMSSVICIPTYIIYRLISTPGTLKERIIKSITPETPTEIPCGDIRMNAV
Excerpt: The reduction of regional specific binding in the drug-pretreated rats was compared to the control animals with saline pretreatment.

SERT binding sites [2] = target: T1, SERT binding sites; experiment: Ex vivo autoradiography of rat brain sections; assay type: in vivo, rats; settings: rat, 2 mg/Kg 5 min prior to [^125I]4
[3] = target: T2, DAT (dopamine transporter) (Rattus norvegicus, UniProt P23977); experiment: In vitro binding assay, membranes of LLC-PK1 cells expressing DAT, [^125I]IPT
T2 construct: membrane homogenates
T2 sequence (P23977 whole entry): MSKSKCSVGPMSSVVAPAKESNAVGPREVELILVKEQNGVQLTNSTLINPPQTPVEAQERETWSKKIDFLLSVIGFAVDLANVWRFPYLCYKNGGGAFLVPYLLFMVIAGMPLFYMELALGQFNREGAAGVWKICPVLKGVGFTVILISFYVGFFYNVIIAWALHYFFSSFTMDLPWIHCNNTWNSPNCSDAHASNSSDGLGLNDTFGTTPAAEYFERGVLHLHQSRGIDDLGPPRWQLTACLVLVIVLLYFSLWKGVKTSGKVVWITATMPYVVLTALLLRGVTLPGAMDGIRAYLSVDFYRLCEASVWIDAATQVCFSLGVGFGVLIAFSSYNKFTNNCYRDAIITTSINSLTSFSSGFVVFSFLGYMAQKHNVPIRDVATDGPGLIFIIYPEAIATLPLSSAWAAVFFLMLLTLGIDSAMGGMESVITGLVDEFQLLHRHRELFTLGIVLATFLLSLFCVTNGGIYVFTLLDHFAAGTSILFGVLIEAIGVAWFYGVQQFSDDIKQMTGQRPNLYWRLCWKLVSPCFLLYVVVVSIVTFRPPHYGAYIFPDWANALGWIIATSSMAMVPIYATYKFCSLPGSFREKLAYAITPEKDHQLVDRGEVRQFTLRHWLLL
Experimental: (§1) Preparation of membrane homogenates: LLC-PK1 cells from pig kidney permanently expressing DAT, NET and SERT, respectively (LLC-DAT, LLC-NET and LLC-SERT) were kindly provided by Dr. G. Rudnick at Yale University. These cells were grown to confluence as a monolayer on 15 cm petri dish as reported previously. […] Cells were then washed once with phosphate buffer saline (w/ Ca^2+ and Mg^2+) (Bio-Whittaker) and harvested with 10 mL PBS by scraping. The cell suspensions were homogenized on ice for 20 strokes and centrifuged at 17,000 rpm for 20 min at 4° C. The pellets were re-suspended in PBS, frozen quickly in liquid N2 and stored in a −70° C. freezer.
(§2) Binding assays: Binding assays were performed in a final volume of 0.2 mL. […] Incubation was carried out for one h at room temperature and the bound ligand was collected on glass fiber filters (Schleicher & Schuell No. 25, Keene, N.H.) presoaked with 1% polyethylenimine (Sigma, St. Louis, Mo.) and counted in a gamma counter (Packard 5000). Results of competition experiments were subjected to nonlinear regression analysis using EBDA (Elsevier-BIOSOFT, Cambridge, UK).

[4] = target: T3, NET (norepinephrine transporter) (Homo sapiens, UniProt P23975); experiment: In vitro binding assay, membranes of LLC-PK1 cells expressing NET, [^125I]IPT
T3 construct: membrane homogenates
T3 sequence (P23975 whole entry): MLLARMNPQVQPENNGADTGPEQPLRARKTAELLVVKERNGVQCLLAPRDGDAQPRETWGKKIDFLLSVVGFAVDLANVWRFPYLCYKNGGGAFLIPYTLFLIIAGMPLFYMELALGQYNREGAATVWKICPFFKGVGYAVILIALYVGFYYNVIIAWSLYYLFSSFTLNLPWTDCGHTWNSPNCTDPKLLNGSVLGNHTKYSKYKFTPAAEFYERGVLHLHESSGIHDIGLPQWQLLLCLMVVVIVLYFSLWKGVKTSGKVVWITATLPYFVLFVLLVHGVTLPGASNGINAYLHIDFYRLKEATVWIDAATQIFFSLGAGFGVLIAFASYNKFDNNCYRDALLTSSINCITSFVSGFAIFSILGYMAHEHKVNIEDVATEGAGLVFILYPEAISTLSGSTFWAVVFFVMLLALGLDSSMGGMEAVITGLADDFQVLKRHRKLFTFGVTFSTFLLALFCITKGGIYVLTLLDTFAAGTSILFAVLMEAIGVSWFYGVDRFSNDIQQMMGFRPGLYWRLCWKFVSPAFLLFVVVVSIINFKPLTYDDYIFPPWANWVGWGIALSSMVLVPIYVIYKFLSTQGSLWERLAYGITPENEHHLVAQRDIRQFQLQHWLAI
Experimental: as §1, §2

[5] = target: T4, SERT (serotonin transporter) (Rattus norvegicus, UniProt P31652); experiment: In vitro binding assay, membranes of LLC-PK1 cells expressing SERT, [^125I]IDAM
T4 construct: membrane homogenates
T4 sequence (P31652 whole entry): as the sequence (P31652 whole entry) above
Experimental: as §1, §2

[6] = Biodistribution in rats after iv injection (organs); assay type: in vivo
Experimental: Biodistribution in rats: Three rats per group were used for each biodistribution study. While under ether anesthesia, 0.2 mL of a saline solution containing 10 μCi of radioactive tracer was injected into the femoral vein. The rats were sacrificed at the time indicated by cardiac excision while under ether anesthesia. Organs of interest were removed and weighed, and the radioactivity was counted. The percent dose per organ was calculated by a comparison of the tissue counts to counts of 1% of the initial dose (100 times diluted aliquots of the injected material) measured at the same time.

[7] = Partition coefficient 1-octanol/buffer; assay type: physicochemical; settings: 1-octanol/buffer pH 7.4, 0.1 M phosphate
Experimental: The test tube was vortexed for 3 min at room temperature, then centrifuged for 5 min. Two weighed samples (2 g each) from the 1-octanol and buffer layers were counted in a well counter. The partition coefficient was determined by calculating the ratio of cpm/g of 1-octanol to that of buffer. Samples from the 1-octanol layer were re-partitioned until consistent partition coefficient values were obtained. The measurement was repeated 3 times.

serotonin transporters = target: T5, serotonin transporters (Rattus norvegicus, UniProt P31652); experiment: Regional brain distribution and specific binding ratio in rats; assay type: in vivo
T5 construct: from tissue; host or cells: rat brain in vivo (hypothalamus, cortex, striatum, hippocampus, cerebellum); ex vivo brain sections
T5 sequence (P31652 whole entry): as above
Experimental: Regional brain distribution in rats was measured after an i.v. injection of the radioactive tracer. Samples from different brain regions: cortex (frontal plus occipital), striatum, hippocampus, cerebellum and hypothalamus were dissected, weighed and counted. The percentage dose/g of each sample was calculated by comparing sample counts with the counts of the diluted initial dose described above. The specific binding ratio in each region was obtained by dividing the % dose/gram values between region by that in the cerebellum ([region-cerebellum/cerebellum]). The cerebellum region containing little or no serotonin transporters was used as the background region.

[8] = Stability of the radioactive material
[9] = LLC-PK1 cells expressing SERT, read-out: Ki SERT

For `CSc1ccc([C@@H]2CN3CCC[C@@H]3c3ccccc32)cc1` [(+)McN5652], the “effect of pretreatment on specific binding/uptake of [^125I]4 in hypothalamus” value (SERT binding sites [1]) was “completely eliminated the specific binding; also recorded: significantly blocked” and the “effect of pretreatment on specific uptake of [^125I]4 in brain regions (autoradiography)” value (SERT binding sites [2]) was “totally eliminated”.
In the case of `CN(C)Cc1ccccc1Sc1ccc(I)cc1CO` [Compound 1, reference compound], the Ki [3] is reported as > 1000 nM, the Ki [4] is reported as 234 ± 26 nM and the Ki [5, 9] is reported as 0.097 ± 0.013 nM.
In the case of `CN(C)Cc1ccccc1Oc1ccc(I)cc1CO` [Compound 2, reference compound], the Ki [3] is reported as > 1000 nM and the Ki [4] is reported as 20 ± 2 nM.
In the case of `CN(C)Cc1ccccc1Oc1ccc(I)cc1N` [Compound 4, 2-(2-(Dimethylaminomethyl)phenoxy)-5-iodophenylamine], the Ki [3] is reported as 309 ± 65 nM, the Ki [4] is reported as 286 ± 36 nM and the “increase in brain uptake vs ADAM (3)” value ([6]; 2 and 4 h after i.v. injection) is reported as “two to three-fold increase”. It also gave a brain uptake ([6]; 2 h after i.v. injection) of 1.08 % dose/brain, a brain uptake ([6]; 4 h after i.v. injection) of 0.33 % dose/brain and a Partition coefficient [7] of 418. For the same compound, the “hypothalamus uptake compared to other radioiodinated compounds” value (serotonin transporters; 60-240 min post i.v. injection) was “highest hypothalamus uptake among all of the radioiodinated compounds”, the “higher uptake in hypothalamus than ADAM (3)” value (serotonin transporters; between 2 and 4 h) was “more than 200%” and the “Regional brain distribution HY (hypothalamus)” value (serotonin transporters; iv, 120 min) was 0.92 % dose/g. The “Regional brain distribution HY (hypothalamus)” value (serotonin transporters; iv, 240 min) was 0.32 % dose/g, the Ki [5] was 0.37 ± 0.11 nM and the “selectivity for SERT over NET and DAT” value [5] was “more than 500 fold”.
For `CN(C)Cc1ccccc1Cc1ccc(I)cc1N` [Compound 5, 2-(2-(dimethylaminomethyl)benzyl)-5-iodophenylamine], the Ki [3] was > 1000 nM, the Ki [4] was 17 ± 4 nM and the Ki [5, 9] was 48.6 ± 4.1 nM.
In the case of `CN(C)Cc1ccccc1Sc1ccc(C#N)cc1N` [DASB, reference compound], the Ki [3] is reported as > 1000 nM and the Ki [5, 9] is reported as 1.1 ± 0.04 nM.
In the case of `CN(C)Cc1ccccc1Oc1ccc([125I])cc1N` [[^123I]4, [^125I][^123I]2-(2-(Dimethylaminomethyl)phenoxy)-5-iodophenylamine], the stability after labeling ([8]; after labeling) is reported as 24 h.
In the case of `CN(C)Cc1ccccc1Cc1ccc([125I])cc1N` [[^125I]5, 2-(2-(Dimethylaminomethyl)benzyl)-5-[^125I]iodophenylamine], the “stability in a refrigerator” value ([8]; refrigerator) is reported as “stable in a refrigerator at least for three weeks”, the brain uptake ([6]; 2 min post-injection) is reported as 1.77 % dose and 1.77±0.049 % dose and the Partition coefficient [7] is reported as 1,730. For the same compound, the “Ratio of (Region-Cerebellum)/Cerebellum, HY” value (serotonin transporters; iv, 120 min) was 2.43.
Compound `CN(C)Cc1ccccc1Sc1ccc([125I])cc1N` [[^125I]ADAM (3), reference compound] has a Partition coefficient [7] of 335.
In the case of `O=C(c1ccc(F)cc1)C1CCN(CCn2c(=O)[nH]c3ccccc3c2=O)CC1` [ketanserin], the “effect of pretreatment on specific binding/uptake of [^125I]4 in hypothalamus” value (SERT binding sites [1]) is reported as “did not show any significant effect”.
In the case of `COC(=O)C(c1ccccc1)C1CCCCN1` (stereo not drawn) [methylphenidate], the “effect of pretreatment on specific binding/uptake of [^125I]4 in hypothalamus” value (SERT binding sites [1]) is reported as “did not show any significant effect”.
For `CCN1CCC[C@H]1CNC(=O)c1c(O)c(Cl)cc(Cl)c1OC` [raclopride], the “effect of pretreatment on specific binding/uptake of [^125I]4 in hypothalamus” value (SERT binding sites [1]) was “did not show any significant effect”.
